Source: ChEMBL document CHEMBL3046145, “Computational and experimental evaluation of ornithine derivatives as ornithine decarboxylase inhibitors” (Med Chem Res, 2009)
pKd: −log10 of the molar value. Active and inactive are the calls of the source. The calls are words filed in the database; no cut-off is given here.

Key:
Ornithine decarboxylase = biological target: T1, Ornithine decarboxylase (Homo sapiens, UniProt P11926); test: Binding affinity to ODC (unknown origin)
T1 sequence (P11926 whole entry): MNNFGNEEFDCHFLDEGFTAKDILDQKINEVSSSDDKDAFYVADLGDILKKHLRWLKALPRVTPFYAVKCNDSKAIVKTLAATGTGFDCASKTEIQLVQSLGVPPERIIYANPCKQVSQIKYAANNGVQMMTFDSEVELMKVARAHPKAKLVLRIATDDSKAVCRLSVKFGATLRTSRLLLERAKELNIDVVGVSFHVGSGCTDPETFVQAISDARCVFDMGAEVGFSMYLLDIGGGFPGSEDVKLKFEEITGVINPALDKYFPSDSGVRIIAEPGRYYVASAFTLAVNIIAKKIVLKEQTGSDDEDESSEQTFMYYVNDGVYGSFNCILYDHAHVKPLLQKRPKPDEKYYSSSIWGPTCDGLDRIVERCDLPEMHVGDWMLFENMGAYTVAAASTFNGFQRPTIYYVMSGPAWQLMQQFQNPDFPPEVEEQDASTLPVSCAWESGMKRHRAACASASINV

[1] = Toxicity in ip dosed Mus musculus CD1 (mouse) assessed as mortality; assay type: organism-based; settings: in vivo
[2] = biological target: T2, Ornithine decarboxylase (Rattus norvegicus) (UniProt P09057); test: Inhibition of Rattus norvegicus Wistar (rat) rat liver ODC assessed as inhibition of 14CO2 release from L-[14C]ornithine
T2 sequence (whole entry): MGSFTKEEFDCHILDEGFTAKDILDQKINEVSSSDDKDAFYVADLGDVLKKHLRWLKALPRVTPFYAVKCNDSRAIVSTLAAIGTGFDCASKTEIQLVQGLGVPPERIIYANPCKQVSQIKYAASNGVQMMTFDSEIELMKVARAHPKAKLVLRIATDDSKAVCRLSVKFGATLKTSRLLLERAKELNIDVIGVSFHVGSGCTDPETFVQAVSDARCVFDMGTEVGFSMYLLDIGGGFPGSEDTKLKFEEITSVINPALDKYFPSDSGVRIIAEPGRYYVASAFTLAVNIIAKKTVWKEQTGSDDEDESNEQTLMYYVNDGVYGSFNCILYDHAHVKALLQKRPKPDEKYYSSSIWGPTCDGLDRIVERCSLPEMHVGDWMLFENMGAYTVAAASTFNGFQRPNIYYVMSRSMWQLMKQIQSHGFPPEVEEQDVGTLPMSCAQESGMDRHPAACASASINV

Rattus norvegicus = organism: Rattus norvegicus; test: Toxicity in Rattus norvegicus (rat); assay type: organism-based; settings: in vivo

SMILES	pKd (Ornithine decarboxylase)	LD50 [1] [mg/kg]	inhibition [2]	LD50 (Rattus norvegicus) [µg]
NCCC[C@@](N)(CF)C(=O)O	4.12			
NCCC[C@H](N)C(=O)O [ORNITHINE]	3.60			
NCCC[C@H](NN)C(=O)O [ALPHA-HYDRAZINE ORNITHINE]	6.30			
N[C@@H](CCCNC(=O)CCl)C(=O)O	2.60	381	Active	
NCCC[C@](N)(C(=O)O)C(F)F [EFLORNITHINE, (S)-]				300
